Measured values reported in patent publication US20210401918A1, “COMPOSITION COMPRISING COMBINATION OF RED CLOVER EXTRACT AND HOPS EXTRACT FOR IMPROVEMENT OF MENOPAUSAL DISORDER” (NATURETECH CO. LTD., priority 2018, published 2021).

Test system: MCF-7 cells
Experiment: MCF-7 cells proliferation assay (MTS)
Format: cell-based, human
Method: MCF-7 cells (human breast cancer cells) were obtained from the Korea Cell Line Bank and used. RPMI (Gibco, USA) medium containing 10% FBS (Gibco, USA) and 1% penicillin-streptomycin (Gibco, USA) was used as cell culture medium, and cells were cultured in 5% CO2, 37° C. incubator. The medium was replaced every two days, and cells were sub-cultured every 4-5 days. HUVECs (human umbilical vein endothelial cells) were obtained from LONZA and used. M200 (Gibco, USA) containing LSGS kit (Gibco, USA) was used as cell culture medium, and only cells at passage 3-5 were used for the experiment.
Estrogen-free medium, which was prepared by diluting phenol red-free RPMI (Gibco, USA) with 5% dextran-coated charcoal-stripped FBS (TCB, USA) and 1% penicillin-streptomycin, was used for the experiment. After reacting cells in the estrogen-free medium for 3 days, they were seeded in a 96-well plate at a concentration of 1.5×10^4 cells/well and incubated in 5% CO2, 37° C. incubator for 24 hours, and then were treated with the sample so that the final DMSO concentration was 0.1%. E2 was used as the positive control, and ICI 182,780 (Sigma Chem. Co., USA) was used as the negative control. After 72 hours of sample treatment, MTS analysis was performed using CellTiter 96®Aqueous One Solution (Promega, Germany) reagent. Each well was treated with 20 μl of MTS reagent, reacted in 5% CO2, 37° C. incubator for 3 hours, and the absorbance was measured at 490 nm using a microplate reader.
In order to ascertain whether each sample acts on the estrogen receptor to show a cell proliferation effect, the sample was treated together with the estrogen receptor inhibit ICI 182,780, and the results are shown in Table 9.

Structure (SMILES)	Proliferation (%) (Table 8, 1 nM, 72 hours, Control = 100)	Proliferation (%) with ICI 182,780 (Table 9, 1 nM, together with ICI 182,780) [%]	Proliferation (%) without ICI 182,780 (Table 9, 1 nM, without ICI 182,780) [%]	Proliferation (%) with ICI 182,780 (Table 9, Control (sample 0 μg/ml) with ICI 182,780 alone) [%]
C[C@]12CC[C@@H]3c4ccc(O)cc4CC[C@H]3[C@@H]1CC[C@@H]2O [Estradiol, 17β-estradiol]	135.78 ± 2.83	92.27 ± 2.04	143.39 ± 10.46	
C[C@]12CC[C@@H]3c4ccc(O)cc4C[C@@H](CCCCCCCCC[S+]([O-])CCCC(F)(F)C(F)(F)F)[C@H]3[C@@H]1CC[C@@H]2O (stereo partly shown) [ICI 182,780]				86.55 ± 1.95
